Laboratory results as given in ChEMBL document CHEMBL1133354, “5-Thienyltryptamine derivatives as serotonin 5-HT1B/1D receptor agonists: potential treatments for migraine” (Bioorg Med Chem Lett, 2000).

Columns and labels:
[1] = molecular target: 5-hydroxytryptamine receptor 1B (Homo sapiens, UniProt P28222); assay: Binding affinity for human 5-hydroxytryptamine 1B receptor
[2] = molecular target: 5-hydroxytryptamine receptor 1D (Homo sapiens, UniProt P28221); assay: Binding affinity for human 5-hydroxytryptamine 1D receptor
Chain of 5-hydroxytryptamine receptor 1D (P28221 whole entry): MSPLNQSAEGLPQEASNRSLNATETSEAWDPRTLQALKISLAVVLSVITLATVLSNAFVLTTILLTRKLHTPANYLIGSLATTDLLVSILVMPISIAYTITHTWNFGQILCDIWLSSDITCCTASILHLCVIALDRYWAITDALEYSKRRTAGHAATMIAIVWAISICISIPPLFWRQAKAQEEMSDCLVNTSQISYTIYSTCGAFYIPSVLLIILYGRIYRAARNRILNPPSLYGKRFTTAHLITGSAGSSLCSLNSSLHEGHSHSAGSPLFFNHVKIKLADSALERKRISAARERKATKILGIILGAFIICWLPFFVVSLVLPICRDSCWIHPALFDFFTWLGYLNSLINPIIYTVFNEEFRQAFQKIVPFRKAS

Chain of 5-hydroxytryptamine receptor 1B (P28222 whole entry): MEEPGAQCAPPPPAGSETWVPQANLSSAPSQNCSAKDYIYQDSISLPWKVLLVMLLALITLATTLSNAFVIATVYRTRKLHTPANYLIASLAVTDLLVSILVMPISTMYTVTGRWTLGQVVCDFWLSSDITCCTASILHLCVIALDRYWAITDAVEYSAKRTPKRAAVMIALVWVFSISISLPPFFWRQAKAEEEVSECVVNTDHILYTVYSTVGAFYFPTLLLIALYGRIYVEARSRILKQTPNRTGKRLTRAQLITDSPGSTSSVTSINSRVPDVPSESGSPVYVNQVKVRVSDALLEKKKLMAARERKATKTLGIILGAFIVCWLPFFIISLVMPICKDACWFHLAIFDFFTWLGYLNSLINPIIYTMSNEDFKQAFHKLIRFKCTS

Row | SMILES | Ki [1] [nM] | Ki [2] [nM]
1 | Cc1ccc(-c2ccc3[nH]cc(CCN(C)C)c3c2)s1 | 133 | 3.2
2 | CC1CCC(C)N1CCc1c[nH]c2ccc(-c3cccs3)cc12 (configuration not stated) | 70 | 2.5
3 | c1csc(-c2ccc3[nH]cc(CCN4CCCC4)c3c2)c1 | 714 | 19
4 | CN(C)CCc1c[nH]c2ccc(-c3cccs3)cc12 | 23 | 0.7
5 | NCCc1c[nH]c2ccc(-c3cccs3)cc12 | 32 | 1.7
6 | COC[C@@H]1CCCN1CCc1c[nH]c2ccc(-c3cccs3)cc12 | 9.9 | 1.8
7 | CN(C)CCc1c[nH]c2ccc(-c3ccsc3)cc12 | 17 | 0.5
8 | CN(C)CCc1c[nH]c2ccc(-c3ccc(Cl)s3)cc12 | 303 | 7.6
9 | OC[C@@H]1CCCN1CCc1c[nH]c2ccc(-c3cccs3)cc12 | 113 | 8.2
10 | Clc1ccc(-c2ccc3[nH]cc(CCN4CCCC4)c3c2)s1 | 476 | 31
11 | C1=CCN(CCc2c[nH]c3ccc(-c4cccs4)cc23)C1 | 107 | 4.5
